Data published in patent US20080193566A1, “Use of high dose concentrations of gaseous nitric oxide” (priority 2007, published 2008).

Experiments:
[1] = tested on: A549-epithelial lung carcinoma cells; test: MTS proliferation assay, A549 cells exposed to 200 or 350 ppm gNO (Example 1); assay type: cell-based, human; design: MTS assay reading, Average / MTS assay reading, Corrected Average: unit not given here; settings: for MTS assay reading, Corrected Average: blank subtracted; for Survival: vs air control
Experimental: The purpose of this example is to illustrate the effect of continuous gaseous nitric oxide (gNO) 200 ppm and 350 ppm compared to air (control) on the survival of a representative line of cancer cells. Cancer cell lines (A549-epithelial lung carcinoma cells and H460-epithelial metastatic; large cell lung cancer cells) were prepared in F12 medium and suspended in six 96-well plates (3 treatment and 3 controls). […] The plates then were removed and cell viability assessed by an MTS proliferation assay.
(§1) When exposed to 350 ppm of gNO, however, cancer cell survival rates decrease dramatically.

[2] = tested on: H460-epithelial metastatic; large cell lung cancer cells; test: MTS proliferation assay, H460 cells exposed to 350 ppm gNO (Example 1); assay type: cell-based, human; settings: 350 ppm NO, 2 hours, RPMI medium
From the text: The purpose of this example is to illustrate the effect of continuous gaseous nitric oxide (gNO) 200 ppm and 350 ppm compared to air (control) on the survival of a representative line of cancer cells. […] […] The plates then were removed and cell viability assessed by an MTS proliferation assay.
as §1

[3] = tested on: non-small cell lung cancer (NSCLC) cells lines; test: MTS cell proliferation assay, 25,000 ppm gNO (Example 4), NSCLC cell line panel; assay type: cell-based, human; settings: between 6 and 9 minutes, all five cancer cell lines
From the text: The purpose of this example is to illustrate the tumorcidal activity of high-dosage gNO. We examined the cellular sensitivity to 25,000 ppm of gNO on 5 non-small cell lung cancer (NSCLC) cells lines by an MTS cell proliferation assay.
Human lung cancer cell lines A549, NCI-H23, NCI-H460, HTB-58, H2170, and H441 (commercially available from American Type Culture Collection (“ATCC”), Manassas, Va.) were maintained in culture medium recommended by ATCC. All media were supplemented with 1% penicillin/streptomycin and 10% fetal bovine serum (commercially available from Invitrogen Gibco-BRL, Burlington, Ontario, Canada). […]
After 24 hours, the A549, NCI-H23, NCI-H460, HTB-58, H2170 and H441 cells were treated with 25,000 ppm gNO or air (control) for 1 minute, 3 minutes, 6 minutes, 9 minutes, 10 minutes, 20 minutes, and 30 minutes. Immediately following treatment, the viability of the cells was determined using a colorimetric MTS (3-(4,5-dimethylthiazol-2-yl)-5-(3-carboxymethoxyphenyl)-2-(4-sulfophenyl)-2H-tetrazolium, inner salt) cell proliferation assay (commercially available as the CellTiter 96® Aqueous One Solution Cell Proliferation Assay (MTS) from Promega, Madison, Wis., USA) according to the manufacturer's protocol. […] Absorbance was measured at 490 nm for each well using a micro-plate reader (commercially available from Dynex Technologies, Chantilly, Va., USA). […]

[4] = tested on: cancer cell lines; test: Viability after 25,000 ppm gNO (Example 5, repeat), cancer cell line panel; assay type: cell-based, human; settings: between about 6 and about 9 minutes, all five cancer cell lines, repeat study
Experimental: (§2) The purpose of this example is to illustrate the effects on normal human cell lines compared to the effects on cancerous cell lines of high-dosage gNO.
(§3) The above study was repeated. In addition to the A549, NCI-H23, NCI-H460, HTB-58, H2170 and H441 cells, four other cell lines were added—normal human bronchial epithelial cells (NHBE), normal human endothelial lung vascular cells (NHVE), normal human fibroblast cells (NHLF), and a squamous lung cancer cell line (H2170).

[5] = tested on: Staphylococcus aureus; test: S. aureus on blood agar plates exposed to 25,000 ppm gNO (Example 2); assay type: cell-based
From the text: The purpose of this example is to observe the possibility of a novel bactericidal high dose (25,000 ppm) effect of gaseous nitric oxide (gNO) on an ATCC strain of Staphylococcous aureus plated on a blood agar media and determine a time effect of this dosage.
A closed environment treatment chamber was used (see, “A direct nitric oxide gas delivery system for bacterial and mammalian cell cultures,” A. Ghaffari, D. H. Neil, A. Ardakani, J. Road, A. Ghahary, C. C. Miller. Nitric Oxide 12(3):129-140, 2005, herein incorporated by reference in its entirety). The following steps were performed: • 1. Calibrated the AeroNOx analyzer as per standard procedure. • 2. Calibrated the closed environment treatment chamber as per standard procedure. • 3. In a 50 mL tube, known Staphylococcus aureus bacteria in 10 mL Nutrient Broth was grown overnight or for about 12 hours in a shaker incubator. • 4. Measured optical density of grown Staphylococcus aureus using a spectrophotometer set at 600 nm. Used original nutrient broth as a blank. O.D. should be 1.0±10%. • 5. Turned on closed environment treatment chamber. • 6. Labeled three plates: Air, NO+1 minute, NO+3 minutes. • 7. Immersed a sterile cotton swab into the bacterial mixture in the 50 mL tube and shaked off excess liquid. • 8. Swiped one plate entirely in two directions with the swab. • 9. […] After incubation, recorded results with digital pictures. • 14. […]

[6] = Viability after 25,000 ppm gNO (Example 5), NHBE; assay type: cell-based; settings: human, normal human bronchial epithelial cells (NHBE)
Experimental: as §2, §3
(§4) FIG. 8, embodiments A, B, C, and D, illustrate the viability of thee three normal human cell lines and one cancerous cell line to which 25,000 ppm gNO is administered for up to 15 minutes. The NHBE cells (embodiment A), experienced a decrease in viability after only 6 minutes of 25,000 ppm gNO administration, resulting in a viability of less than 10%. The NHVE cells (embodiment B) experienced a decrease in viability after only 6 minutes of 25,000 ppm gNO administration, resulting in a viability of less than 10%. The NHLF cells (embodiment C) also experienced a decrease in viability after only 6 minutes of 25,000 ppm gNO administration, resulting in a viability of about 30%. The H2170 cancerous cells experienced a dramatic decrease in viability after only 6 minutes of 25,000 ppm gNO administration, resulting in a viability of less than 10%.

[7] = Viability after 25,000 ppm gNO (Example 5), NHLF; assay type: cell-based; settings: human, normal human lung fibroblast cells (NHLF)
Experimental: as §2, §3, §4

[8] = Viability after 25,000 ppm gNO (Example 5), NHVE; assay type: cell-based; settings: human, normal human endothelial lung vascular cells (NHVE)
Experimental: as §2, §3, §4

[9] = 200 ppm NO, 1 hour, HBSS medium
[10] = 200 ppm NO, 2.5 hours, F12 medium
[11] = 200 ppm NO, 2.5 hours, HBSS medium
[12] = 200 ppm NO, 3.5 hours, F12 medium
[13] = 200 ppm NO, 3.5 hours, HBSS medium
[14] = 350 ppm NO, 2 hours, F12 medium

With `[N]=O` [gNO, nitric oxide] the “MTS assay reading, Average” value ([1]; 200 ppm NO, 1 hour, F12 medium) was 0.852, the “MTS assay reading, Corrected Average” value ([1]; 200 ppm NO, 1 hour, F12 medium) was 0.621 and the Survival ([1]; 200 ppm NO, 1 hour, F12 medium) was “about 92%”. For the same molecule, the “MTS assay reading, Average” value [1, 9] was 0.06, the “MTS assay reading, Corrected Average” value [1, 9] was 0 and the “MTS assay reading, Average” value [1, 10] was 1.276. The “MTS assay reading, Corrected Average” value [1, 10] was 0.918, the Survival [1, 10] was “about 90%” and the “MTS assay reading, Average” value [1, 11] was 0.06. For the same molecule, the “MTS assay reading, Corrected Average” value [1, 11] was 0, the “MTS assay reading, Average” value [1, 12] was 1.529 and the “MTS assay reading, Corrected Average” value [1, 12] was 1.059. For the same molecule, the Survival [1, 12] was “about 87%”, the “MTS assay reading, Average” value [1, 13] was 0.061 and the “MTS assay reading, Corrected Average” value [1, 13] was 0. For the same molecule, the “MTS assay reading, Average” value [1, 14] was 0.110, the “MTS assay reading, Corrected Average” value [1, 14] was 0.009 and the “MTS assay reading, Average” value [2] was 0.158. For the same molecule, the “MTS assay reading, Corrected Average” value ([2]; blank subtracted) was 0.037, the cells killed [3] was 75-95% and the cells killed [4] was 75-95%. For the same molecule, the “plate appearance after incubation (FIG. 4)” value ([5]; 1 minute of exposure) was “still shows signs of the S. aureus”, the “plate appearance after incubation (FIG. 5)” value ([5]; 3 minutes of exposure) was “no signs of the S. aureus” and the viability at 6 min, 25000 ppm [6] was < 10%. For the same molecule, the viability at 6 min, 25000 ppm ([7]; 6 minutes) was ~30%, the viability at 15 min, 25000 ppm ([7]; after 15 minutes of exposure) was 30% and the viability at 6 min, 25000 ppm [8] was < 10%.
